One block for each molecule: values may come before it.
Tests used:
[1] = biological target: T1, S100P binding with RAGE (Homo sapiens, UniProt P25815); assay: S100P binding with RAGE ELISA (sRAGE coated plate)
T1 construct: full-length human S100P cDNA (NM_005980) was cloned into the pTrcHis2 vector; His tag
T1 sequence (P25815 1-95): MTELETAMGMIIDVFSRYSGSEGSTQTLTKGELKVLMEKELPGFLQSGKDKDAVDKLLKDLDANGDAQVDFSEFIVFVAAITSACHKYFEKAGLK
Procedure: After removing un-bound S100P by washing with detergent, the bound S100P and RAGE complex was quantified by adding HRP labeled antibody against S100P. *, P=0.04 C5 μM versus cromolyn 5 μM. Two-tailed two-sample (unpaired) Student's t-tests were used to determine P values.

[2] = tested on: NFκB activity in MPanc-96 cells; assay: S100P stimulated NFκB luciferase reporter, MPanc-96; assay type: cell-based, human
Procedure: MPanc-96 pancreatic cancer cell lines stably expressing an NFκB luciferase reporter were examined for the effects of S100P, cromolyn and C5. Cells were plated at 5.0×10^3 cells/well, treated for 5 hours with 100 nM of S100P, with or without cromolyn and C5 (1 μM), and activity of a luciferase gene driven by the NFkB promoter was analyzed. P=0.05 C5 versus cromolyn. Two-tailed two-sample (unpaired) Student's t-tests were used to determine P values.

[3] = tested on: BxPC-3 cells; assay: BxPC-3 cell viability, 72 hours; assay type: cell-based
Procedure: BxPC-3 cells were plated at 1.0×10^3 cells/well and treated with 0 μM, 1 μM, 10 μM, and 100 μM of cromolyn or C5 alone or in combination with gemcitabine 1 μM and cell viability was analyzed after 72 hours. Two-tailed two-sample (unpaired) Student's t-tests were used to determine P values. […] BxPC-3 cells were plated at 1.0×10^3 cells/well and treated with either 100 μM of cromolyn or 1 μM C5 alone or in combination with gemcitabine (1 μM) and cell viability was analyzed after 72 hours.

[4] = tested on: MPanc-96 cells; assay: MPanc-96 cell apoptosis by flow cytometry, 72 hours; assay type: cell-based, human; conditions: 100 and 1000 nM, with or without gemcitabine 10 μM
Procedure: FIG. 11 compares the effects of cromolyn and C5 alone and in combination with gemcitabine on MPanc-96 cell apoptosis. MPanc-96 cells were treated with cromolyn or C5 (100 and 1000 nM) with (+) or without (−) gemcitabine (10 μM). Apoptosis was analyzed after 72 hours by flow cytometry.

[5] = biological target: S100B with RAGE (Homo sapiens, UniProt P04271); assay: S100B binding with RAGE ELISA (sRAGE coated plate)
S100B with RAGE, sequence (P04271 whole entry, species assumed): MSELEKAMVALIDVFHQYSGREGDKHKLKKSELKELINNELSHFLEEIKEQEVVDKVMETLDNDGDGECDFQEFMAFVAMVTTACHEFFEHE
Source text: After removing un-bound S100B by washing with detergent, bound S100B and RAGE complex was quantified by adding HRP labeled antibody against S100B.

[6] = tested on: Panc-1 cells; assay: Panc-1 cell growth (MTS); assay type: cell-based
Procedure: Panc-1 pancreatic adenocarcinoma cells (1.0×10^3 cells/well) were cultured in the presence or absence of S100P (100 nM) and with or without cromolyn (100 μM), and cell proliferation was analyzed at 24, 48, and 72 hours. Means and 95% confidence intervals of three independent experiments performed in triplicate are shown. *, P=0.001, S100P alone versus S100P+cromolyn.
Panc-1 cells were plated at 1.0×10^3 cells/well and treated with platelet-derived growth factor (10 ng/mL) with or without cromolyn (100 μM), and cell proliferation was analyzed after 48 hours. Means and 95% confidence intervals of three independent experiments performed in triplicate are shown. *, P=0.004 PDGF and P=0.022 cromolyn+PDGF versus control.
Growth of Panc-1 and BxPC3 pancreatic adenocarcinoma cells was analyzed using MTS reagent (Promega, Madison, Wis.) according to the manufacturer's directions. Purified S100P (100 nM final concentration) with or without cromolyn (100 μM final concentration) was added to Panc-1 cells. Only cromolyn (0-100 μM) was added to BxPC-3 cells, which express endogenous S100P. For both cell models, 1.0×10^3 cells/well were plated in 96-well culture dishes. Cells were treated with S100P, PDGF, or cromolyn, or a combination, followed immediately by treatment with either S100P or PDGF. MTS (20 μL per well) was added to cells at various times, and the mixture was incubated for 1 hour at 37° C. Samples were then read at 490 nm (as O.D. units) on a uQuant-Microplate Spectrophotometer (Bio-Tek Services Inc., Richmond, Va.). The assay was performed three times in triplicate.

[7] = tested on: Panc-1 cells; assay: Matrigel invasion assay, Panc-1; assay type: cell-based; conditions: S100P 100 nM alone, 24 hours
Procedure: FIGS. 2A-2D show the effect of cromolyn on pancreatic cancer cell invasion. Panc-1 and BxPC-3 cells were plated in Bio-coat matrigel and control chambers and cultured in serum-free culture media. After 24 hours non-invaded cells in the upper chamber were removed, and cells that invaded onto the lower surface of the membrane were counted from five adjacent fields. […] Data are expressed as the percent invasion through the matrigel matrix and membrane relative to migration through the control membrane. Means and 95% confidence intervals from three independent experiments performed in triplicate are shown. Two-tailed two-sample (unpaired) Student's t-tests were used to determine P values.
Panc-1 and BxPC-3 cells were seeded in BIOCOAT matrigel invasion chambers and in control chambers without matrigel (Becton-Dickinson, Bedford, Mass.) according to the manufacturer's protocol. Panc-1 cells were seeded with S100P (100 nM) with or without cromolyn (100 μM), and BxPC-3 cells were seeded with or without cromolyn (1-100 μM). Briefly, 2.0×10^5 cells in 300 μL top solution (serum-free media) were added to each chamber and allowed to invade matrigel for 24 hours at 37° C. in a 5% CO2 atmosphere. The non-invading cells on the upper surface of membrane were removed from the chambers with a cotton swab, and the invading cells on the lower surface of the membrane were fixed and stained using a Diff-Quick stain kit (Becton Dickinson, Bedford, Mass.). After two washes with water, the chambers were allowed to air dry. The numbers of invading cells in five adjacent microscope fields per membrane were counted at 20× magnification to obtain the average number of cells per field. Data are expressed as the percent invasion through the matrigel matrix and membrane relative to the migration through the control membrane. The assays were performed three times.

[8] = tested on: NFκB promoter activity in Panc-1 cells; assay: Luciferase assay for NFκB activity, Panc-1; assay type: cell-based; conditions: for NFκB promoter activity in Panc-1 cells, mean: 5 hours, 0 nM mean=3358
Procedure: FIGS. 3A, 3B, and 3C show the effect of cromolyn on S100P stimulated NFκB promoter activity in pancreatic cancer cells in vitro and in vivo. Panc-1 and BxPC-3 pancreatic cancer cell lines stably expressing an NFκB luciferase reporter were examined for the effects of S100P and cromolyn. […] Means and 95% confidence intervals are shown for three independent experiments performed in triplicate. *, P=0.022, †, P<0.001, and ‡, P<0.001 versus control; #, P=0.005 versus 100 nM S100P alone. […] Means and 95% confidence intervals are shown for three independent experiments performed in triplicate. *, P=0.003, †, P<0.001 versus control. […] After 1 week, tumor growth was assessed and NFκB activity was analyzed using an IVIS system (Xenogen Corp., Alameda, Calif.) after injecting mice with D-luciferin (150 mg per kg body weight) (0 time point). The mice were treated with cromolyn (5 mg per kg body weight by intraperitoneal injection), and NFκB luciferase activity was analyzed again at 24 and 48 hours. *, P=0.005 versus control. Means and 95% confidence intervals are shown for two independent experiments (n=4 mice per group). Two-tailed two-sample (unpaired for in vitro and paired for in vivo studies) Student's t-tests were used to determine P values.
To study pancreatic cancer cell NFκB activity, a lentivirus NFκB luciferase reporter gene construct was developed. The NFκB luciferase reporter gene was excised and isolated from the pNF-κB-Luc Vector (Clonetec, Mountain View, Calif.) and cloned into the lentiviral vector FG9 (Gift from Dr. Xiao-Feng Qin, Dept. of Immunology, M.D. Anderson Cancer Center replacing the CMV/LTR and UBiC promoters, to form Lenti-NFκB-Luc. Lentiviral NFκB vector were co-transfected with packaging constructs pRSVREV, pMDLg/pRRE, and the VSV-G expression plasmid pHCMVG, and lentivirus was produced in 293T cells by the calcium transfection method, as previously described in Qin, et al., Inhibiting HIV-1 infection in human T cells by lentiviral-mediated delivery of small interfering RNA against CCR5; Proc. Natl. Acad. Sci. U.S.A. 2003 Jan. 7; 100(1):183-8. […] Functional validation of NFκB reporter activity was conducted in vitro using TNF-α (20 ng/mL, Sigma, St. Louis, Mo.) as a positive control.
BxPC-3 and Panc-1 cells stably expressing a Lenti-NFkB-luc reporter construct were treated with S100P, cromolyn, or the combination for 5 hours. D-luciferin (150 μg/mL) was added to the cells, and luciferase activity was measured using an IVIS bioluminescence system (Xenogen Co. Alameda, Calif.). Each experiment was conducted three times in triplicate.

concentration achieving the same level of S100P inhibition [1]: 100 nM
interaction between S100P with RAGE [1]: blocked
potency relative to cromolyn in blocking S100P-RAGE interaction [1]: more potent than cromolyn
Molecule: O=C([O-])c1cc(=O)c2c(OCCCCCOc3cccc4oc(C(=O)[O-])cc(=O)c34)cccc2o1.[Na+].[Na+] [C5, disodium 1,5-bis(2-carboxychromon-5-yloxy) pentane]
NFκB activity in pancreatic cancer cells in vitro ([2]; S100P 100 nM, compound 1 μM, 5 hours): inhibit NFκB activity
reduction of S100P induced NFκB activity relative to cromolyn ([2]; same dose (1 μM)): much better than cromolyn
BxPC-3 cell viability ([3]; 1-100 μM, alone or with gemcitabine 1 μM): inhibit BxPC-3 cell viability
inhibition of BxPC-3 cell viability relative to cromolyn ([3]; alone at 10 or 100 μM, with gemcitabine at 1-100 μM): more potent and more efficacious than cromolyn
concentration giving the same level of cell reduction in combination with gemcitabine ([3]; with gemcitabine 1 μM): 1 µM
MPanc-96 cell viability [4]: inhibit MPanc-96 cell viability
interaction of S100B with RAGE [5]: inhibit the interaction of S100B with RAGE

Molecule: PDGF
Panc-1 cell growth, difference control versus PDGF ([6]; PDGF 10 ng/mL, 48 hours): 0.2 MTS units
Panc-1 cell growth, mean ([6]; PDGF 10 ng/mL, 48 hours, control mean=0.5): 0.7 MTS units

B1: S100P: purified His-tagged full-length human S100P protein, added exogenously as RAGE ligand (protein, UniProt P25815 1-95, looked up)
chain: T1 sequence (P25815 1-95)
modifications: full-length His tag
notes: purified His-tagged full-length human S100P protein, added exogenously as RAGE ligand
Panc-1 cell proliferation, mean ([6]; S100P 100 nM alone): 0.93 MTS units
Panc-1 cells invaded, mean [7]: 58.0%
NFκB promoter activity in Panc-1 cells, difference versus 0 nM ([8]; S100P 1 nM): 3544 photons/sec
NFκB promoter activity in Panc-1 cells, mean ([8]; S100P 1 nM): 6902 photons/sec
NFκB promoter activity in Panc-1 cells, difference versus 0 nM ([8]; S100P 10 nM): 5400 photons/sec
NFκB promoter activity in Panc-1 cells, mean ([8]; S100P 10 nM): 8758 photons/sec
NFκB promoter activity in Panc-1 cells, difference versus 0 nM ([8]; S100P 100 nM): 11100 photons/sec
NFκB promoter activity in Panc-1 cells, mean ([8]; S100P 100 nM): 14460 photons/sec
